In ChEMBL document CHEMBL1201862, “PubChem BioAssay data set” (2004):
Active and inactive are the calls of the source.

Tests used:
SN12K1 = assay: cells; assay type: functional; details: Homo sapiens
P388 = assay: cells; assay type: functional; details: Mus musculus
P388/ADR = assay: cells; assay type: functional; details: Mus musculus
HeLa = assay: HeLa cell cytotoxicity, dose response, cytotoxicity control for MITF activator project, CellTiter-Glo luminescence, cherry-pick samples (AID 540259); assay type: functional, cell-based; details: Homo sapiens
[1] = molecular target: T1, Corticotropin-releasing factor receptor 2/Corticotropin-releasing factor-binding protein (Homo sapiens, UniProt P24387+Q13324); assay: activators of CRF receptor 2 with binding protein – uHTS hits, confirmation (AID 602473); assay type: functional; details: read-out: EC50_Mean
T1 sequence (Q13324 whole entry): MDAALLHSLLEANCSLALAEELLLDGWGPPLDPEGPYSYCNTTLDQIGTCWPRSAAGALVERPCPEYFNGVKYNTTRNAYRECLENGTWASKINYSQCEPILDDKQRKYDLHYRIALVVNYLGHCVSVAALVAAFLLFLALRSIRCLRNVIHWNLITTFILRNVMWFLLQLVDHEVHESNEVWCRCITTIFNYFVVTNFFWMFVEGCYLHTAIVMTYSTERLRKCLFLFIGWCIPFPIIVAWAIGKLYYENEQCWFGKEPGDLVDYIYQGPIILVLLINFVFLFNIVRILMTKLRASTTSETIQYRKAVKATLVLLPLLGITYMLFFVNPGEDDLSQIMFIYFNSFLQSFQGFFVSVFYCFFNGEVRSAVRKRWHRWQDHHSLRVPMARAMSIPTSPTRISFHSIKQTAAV
T1 sequence (P24387 whole entry): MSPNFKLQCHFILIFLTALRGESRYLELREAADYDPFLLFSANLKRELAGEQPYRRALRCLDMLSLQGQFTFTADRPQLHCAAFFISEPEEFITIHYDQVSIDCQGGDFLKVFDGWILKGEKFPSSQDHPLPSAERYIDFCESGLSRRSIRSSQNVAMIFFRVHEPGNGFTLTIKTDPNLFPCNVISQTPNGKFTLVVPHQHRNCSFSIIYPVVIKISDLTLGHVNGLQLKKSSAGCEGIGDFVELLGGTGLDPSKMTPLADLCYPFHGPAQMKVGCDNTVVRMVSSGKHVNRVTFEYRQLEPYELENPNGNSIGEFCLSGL

[2] = molecular target: T2, Microphthalmia-associated transcription factor (Homo sapiens, UniProt O75030); assay: TRPM1 promoter luciferase signal decrease, dose response, MITF inhibitor project, cell-based, SK-MEL-5, cherry-picked, set 3 (AID 493073); assay type: functional
T2 sequence (O75030 whole entry): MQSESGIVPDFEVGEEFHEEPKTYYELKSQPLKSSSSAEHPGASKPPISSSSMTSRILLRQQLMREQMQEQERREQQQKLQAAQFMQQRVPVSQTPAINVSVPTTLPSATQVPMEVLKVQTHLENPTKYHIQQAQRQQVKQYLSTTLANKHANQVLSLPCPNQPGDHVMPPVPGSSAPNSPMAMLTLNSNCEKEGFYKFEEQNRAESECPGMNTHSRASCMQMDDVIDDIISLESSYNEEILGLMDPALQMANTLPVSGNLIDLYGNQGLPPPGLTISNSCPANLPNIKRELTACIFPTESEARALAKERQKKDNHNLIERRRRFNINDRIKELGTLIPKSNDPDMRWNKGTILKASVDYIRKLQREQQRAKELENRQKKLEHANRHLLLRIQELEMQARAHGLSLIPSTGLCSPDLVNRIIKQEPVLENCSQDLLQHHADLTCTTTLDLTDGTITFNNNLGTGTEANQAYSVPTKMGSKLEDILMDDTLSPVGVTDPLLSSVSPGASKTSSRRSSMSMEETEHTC

[3] = inhibitors of clade B AD8 Env fusion, dose response, cell-based, cherry-pick (AID 652062); assay type: functional;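 note: luciferase signal from cell-cell fusion driven by HIV-1 clade B AD8 Env; potency is for inhibitors of fusion seen as a drop in luminescence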
[4] = inhibitors of HIV Env-driven cell fusion, dose response, cherry-pick (AID 652057); assay type: functional, cell-based
[5] = molecular target: T3, Short transient receptor potential channel 4 (Mus musculus, UniProt Q9QUQ5); assay: mouse TRPC4 channel activators, dose response, cell-based, HEK293 TRPC4/mu-opioid, Fluo-4 calcium (AID 434937); assay type: functional
T3 sequence (Q9QUQ5 whole entry): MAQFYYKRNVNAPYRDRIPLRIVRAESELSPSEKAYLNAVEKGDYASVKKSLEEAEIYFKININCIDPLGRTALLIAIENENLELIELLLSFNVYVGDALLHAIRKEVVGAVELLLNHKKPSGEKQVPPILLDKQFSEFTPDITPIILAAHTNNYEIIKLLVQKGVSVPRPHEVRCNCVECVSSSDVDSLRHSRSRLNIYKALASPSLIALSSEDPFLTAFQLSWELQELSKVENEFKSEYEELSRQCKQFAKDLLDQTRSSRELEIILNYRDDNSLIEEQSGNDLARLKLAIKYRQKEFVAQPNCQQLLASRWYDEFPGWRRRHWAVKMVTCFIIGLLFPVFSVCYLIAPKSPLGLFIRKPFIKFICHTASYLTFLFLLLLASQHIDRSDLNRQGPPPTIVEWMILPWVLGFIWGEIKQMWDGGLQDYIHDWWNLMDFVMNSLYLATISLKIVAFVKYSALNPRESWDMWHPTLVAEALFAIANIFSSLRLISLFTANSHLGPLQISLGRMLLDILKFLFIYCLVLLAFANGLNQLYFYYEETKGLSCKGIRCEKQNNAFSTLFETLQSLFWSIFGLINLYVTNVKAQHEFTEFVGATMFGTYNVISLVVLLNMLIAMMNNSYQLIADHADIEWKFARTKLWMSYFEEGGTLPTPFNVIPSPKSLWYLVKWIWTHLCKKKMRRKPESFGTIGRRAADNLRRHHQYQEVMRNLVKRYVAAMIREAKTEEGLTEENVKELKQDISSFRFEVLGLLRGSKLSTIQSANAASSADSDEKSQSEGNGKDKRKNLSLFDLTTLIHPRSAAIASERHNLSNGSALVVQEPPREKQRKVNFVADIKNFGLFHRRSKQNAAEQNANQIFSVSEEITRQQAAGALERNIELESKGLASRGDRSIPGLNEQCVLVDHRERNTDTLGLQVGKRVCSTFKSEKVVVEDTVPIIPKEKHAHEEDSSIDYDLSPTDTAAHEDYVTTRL

H4 = assay: Luminescence Cell-Based Dose Response HTS to Identify Activators of 5'UTR Stem-Loop Driven Prion Protein mRNA Translation in H4 Neuroglioblastoma Cells. [Related pubchem assays: 1829 (Project Summary), 1814 (Primary HTS)]; assay type: functional; details: Homo sapiens
[6] = Luminescence Cell-Based Dose Confirmation HTS to Identify Activators of 5'UTR Stem-Loop Driven Alpha-Synuclein mRNA Translation in H4 Neuroglioblastoma Cells. [Related pubchem assays: 1829 (Project Summary), 1814 (Primary HTS)]; assay type: functional
[7] = Luminescence Cell-Based Dose Response HTS to Identify Activators of Luciferase Translation or Activity in H4 […] Cells. [Related pubchem assays: 1829 (Project Summary), 1814 (Primary HTS)]; assay type: functional
Paired box protein Pax-8 = Paired box protein Pax-8 (Homo sapiens, UniProt Q06710); assay: inhibitors of PAX8-driven TPO luciferase reporter, dose response, RMG-I cells, cherry-pick (AID 687027); assay type: functional, cell-based;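 note: luciferase reporter driven by Pax8 target thyroperoxidase promoter measured by SteadyGlo luminescence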
[8] = inhibitors of intracellular T. cruzi replication, confirmation, NIH3T3 host cells, beta-gal luminescence (AID 2044); assay type: functional, cell-based;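 note: intracellular parasites grown in NIH/3T3 mouse fibroblasts as host cells; luminescent beta-galactosidase reporter signal from transgenic T. cruzi replicating inside host cells; inhibitors lower the luminescence signal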
[9] = molecular target: T3, Short transient receptor potential channel 4; assay: mouse TRPC4 channel inhibitors, dose response, cell-based, HEK293 TRPC4/mu-opioid, Fluo-4 calcium (AID 434942); assay type: functional;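 note: potency of inhibitors blocking the TRPC4 calcium response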
[10] = cytotoxicity toward NIH3T3 fibroblasts, dose response, counter-screen, cell-based, ATP luminescence, mouse fibroblasts (AID 2010); assay type: functional;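 note: cells exposed to compound for about 90 hours before reading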

Sequence of Paired box protein Pax-8 (Q06710 whole entry): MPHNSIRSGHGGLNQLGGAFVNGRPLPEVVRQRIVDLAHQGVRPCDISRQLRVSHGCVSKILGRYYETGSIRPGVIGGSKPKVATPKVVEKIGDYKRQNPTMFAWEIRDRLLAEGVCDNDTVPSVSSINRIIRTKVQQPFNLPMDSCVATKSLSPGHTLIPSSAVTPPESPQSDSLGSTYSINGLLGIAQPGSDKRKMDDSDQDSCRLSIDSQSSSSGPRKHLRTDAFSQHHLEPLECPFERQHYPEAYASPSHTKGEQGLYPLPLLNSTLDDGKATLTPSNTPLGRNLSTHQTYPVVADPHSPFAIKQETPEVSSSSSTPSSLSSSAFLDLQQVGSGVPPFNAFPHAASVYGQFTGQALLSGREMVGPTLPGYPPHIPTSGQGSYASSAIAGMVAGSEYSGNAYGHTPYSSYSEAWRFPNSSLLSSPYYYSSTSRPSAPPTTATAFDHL

Cc1ccc(C#CS(=O)(=O)C(F)(F)F)cc1
GI50 (SN12K1): > 100 µM (inactive)
GI50 (P388): 90.6 µM (inactive)
GI50 (P388/ADR): > 100 µM (inactive)

CCn1c(COc2ccccc2C)nc2ccccc21
AC50 (HeLa): 81 µM (active)
EC50 [1]: 4.28 µM (active)

CCOC(=O)c1c[nH]c2cc3c(cc2c1=O)CCS3(=O)=O.CCOC(=O)c1c[nH]c2ccc3c(c2c1=O)S(=O)(=O)CC3
GI50 (SN12K1): > 100 µM (inactive)
GI50 (P388): > 100 µM (inactive)
GI50 (P388/ADR): > 100 µM (inactive)

O=C1NC(=O)C(CCO)(c2ccccc2)C(=O)N1
GI50 (SN12K1): > 100 µM (inactive)
GI50 (P388): > 100 µM (inactive)

COc1ccc(C)cc1Nc1nc(N)c2cc(OC)c(OC)cc2n1
AC50 [2]: 14.2 µM (active)

Cc1ccc(S(=O)(=O)N(C)C[C@@H]2Oc3ccc(NC(=O)Cc4cn(C)c5ccccc45)cc3CC(=O)N([C@H](C)CO)C[C@@H]2C)cc1
AC50 [3]: 14.5 µM (active)
AC50 [4]: 1.09 µM (active)

CSCCC(NS(=O)(=O)c1ccc2c(c1)c(=O)n(C)c(=O)n2C)C(=O)NC1CCN(Cc2ccccc2)CC1 (stereo not drawn)
EC50 [5]: 3.76 µM (active)

COC1C(O)C(n2ncc3c(SC)nc(SC)nc32)OC1C(O)CO (stereo not drawn)
GI50 (SN12K1): > 37.2 µM (inactive)
GI50 (P388): 98.2 µM (inactive)
GI50 (P388/ADR): > 100 µM (inactive)

c1ccc2c(c1)NCc1cc3ccccc3nc1O2
GI50 (SN12K1): > 100 µM (inactive)
GI50 (P388): > 100 µM (inactive)
GI50 (P388/ADR): 74.1 µM (inactive)

COCCN(C(=O)COC(=O)/C=C/c1ccccc1Cl)c1c(N)n(Cc2ccccc2)c(=O)[nH]c1=O
EC50 (H4): > 120 µM (not active)
EC50 [6]: 26.2 µM (active)
EC50 [7]: 9.52 µM (active)

COc1ccc(C(CNC(=O)c2cccc(NS(=O)(=O)c3ccc(Br)cc3)c2)N(C)C)cc1 (stereo not drawn)
EC50 [5]: 5.31 µM (active)

O=C(O)c1ccc(Nc2c3ccccc3nc3ccccc23)cc1
GI50 (SN12K1): 60.5 µM (inactive)
GI50 (P388): 3.92 µM (inactive)
GI50 (P388/ADR): 22.4 µM (inactive)

CNCCOc1ccc(Cl)c(Cl)c1
EC50 [5]: 0.944 µM (active)

Oc1nc2cc3c(cc2cc1CN(Cc1nnnn1C1CCCC1)C1CCCC1)OCCO3
EC50 (H4): 59.4 µM (active)
EC50 [6]: > 120 µM (not active)
EC50 [7]: > 120 µM (not active)

COC(=O)[C@]12CCCCC=C1N(Cc1cccc3ccccc13)C(=O)[C@H](CC(=O)N1CCN(C(=O)c3ccco3)CC1)C2
AC50 (Paired box protein Pax-8): 1.59 µM (active)

O=C(NC(=S)NCc1nc2ccccc2[nH]1)c1ccccc1F
EC50 (H4): 9.16 µM (active)
EC50 [6]: 70.7 µM (active)
EC50 [7]: 25.6 µM (active)

O=C(NC1=NCCS1)C12CC3CC(C1)CC(C(=O)NC1=NCCS1)(C3)C2
EC50 (H4): 9.63 µM (active)
EC50 [6]: > 120 µM (not active)
EC50 [7]: 13.6 µM (inconclusive)

O=P1(N(CCCl)CCCl)NCCCO1 (stereo not drawn) [CYCLOPHOSPHAMIDE ANHYDROUS]
GI50 (SN12K1): > 245 µM (inactive)
GI50 (P388): 229 µM (inactive)
GI50 (P388/ADR): 196 µM (inactive)

COc1cccc(/C=C/C(=O)OC(C)C(=O)Nc2c(C)n(C)n(-c3ccccc3)c2=O)c1 (stereo not drawn)
EC50 (H4): > 120 µM (not active)
EC50 [6]: 10.5 µM (active)
EC50 [7]: 49.1 µM (active)

COc1cccc2cc(CC(=O)c3ccc(C)cc3C)c(=O)oc12
AC50 (HeLa): 83.9 µM (active)
EC50 (H4): 11 µM (active)
EC50 [6]: 43.3 µM (active)
EC50 [7]: 43.4 µM (active)

CCOc1ccc2ncc(C(=O)c3ccc(OC)cc3)c(N3CCN(CC)CC3)c2c1
EC50 [5]: 5.96 µM (active)

C[C@H](CO)N1C[C@H](C)[C@H](CN(C)S(=O)(=O)c2cccs2)Oc2ccc(NC(=O)Cc3ccccc3)cc2CC1=O
AC50 [3]: < 0.26 µM (active)
AC50 [4]: < 0.26 µM (active)

CC(NCc1cc(Br)ccc1OCC(=O)NCc1ccccc1)c1ccccc1 (stereo not drawn)
EC50 [5]: 7.5 µM (active)
EC50 [8]: 2.53 µM (active)
EC50 [9]: 1.06 µM (active)
EC50 [10]: > 60 µM (not active)

COc1cccc(CNC(=O)CN2C(=O)CSc3ccc(S(=O)(=O)N4CCCCC4)cc32)c1
EC50 (H4): > 120 µM (not active)
EC50 [6]: > 120 µM (not active)
EC50 [7]: > 120 µM (not active)
